Paper PMC10794188, “Structure-based development of 3,5-dihydroxybenzoyl-hydrazineylidene as tyrosinase inhibitor; in vitro and in silico study” (Scientific Reports, 2024)
Like-named read-outs stand apart in the source and are kept apart here.

Key:
mushroom tyrosinase = conditions: cited from earlier work
tyrosinase [1] = test: Tyrosinase inhibitory assay (colorimetric, L-DOPA substrate); format: biochemical; conditions: for IC50: read-out: IC50 (µM) ± RSD
Experimental: The tyrosinase inhibitory activities of derivatives were performed according to the previously reported procedures[26],[27]. All the test samples were first dissolved in DMSO at dilution to the required final concentrations. Initially, in a 96-well microplate, 10 µl of test samples were added to 160 µl of phosphate buffer (pH = 6.8), and then 10 µl tyrosinase was added. After the mixture was pre-incubated at 28 °C for 20 min, 20 µl of L-DOPA solution was added. DMSO without test compounds was used as the control, and kojic acid was used as a positive control. After 8 min incubation absorbance of samples was measured at 490 nm. Each assay was conducted as three separate replicates.

tyrosinase [2] = test: Enzyme kinetic study (Lineweaver–Burk, L-DOPA); format: biochemical
Description: The Lineweaver–Burk reciprocal plot was provided by plotting 1/V against 1/[S] at variable concentrations of the L-DOPA.

skin melanoma cells = tested on: skin melanoma cells; parameters: method as in PMID 34140181; conditions: 8 µM; cited from earlier work

| SMILES | % inhibition at 100 µM (tyrosinase [1]) [%] | further results |
| --- | --- | --- |
| O=C(/C=C/c1ccc(O)cc1)c1cc(O)cc(O)c1 [A] | – | IC50 (mushroom tyrosinase): 8.1 µM |
| O=C(Cn1cc(COc2ccc(C=NNC(=O)c3cc(O)cc(O)c3)cc2)nn1)Nc1ccccc1 [Compound 11a, 2-(4-((4-((2-(3,5-dihydroxybenzoyl)hydrazineylidene)methyl)phenoxy)methyl)-1H-1,2,3-triazol-1-yl)-N-phenylacetamide] | 53.87 ± 1.53 | IC50 (tyrosinase [1]): 90.5 µM |
| O=C(Cn1cc(COc2ccc(C=NNC(=O)c3cc(O)cc(O)c3)cc2)nn1)Nc1ccccc1F [Compound 11b, 2-(4-((4-((2-(3,5-dihydroxybenzoyl)hydrazono)methyl)phenoxy)methyl)-1H-1,2,3-triazol-1-yl)-N-(2-fluorophenyl)acetamide] | 22.99 ± 1.20 | – |
| O=C(Cn1cc(COc2ccc(C=NNC(=O)c3cc(O)cc(O)c3)cc2)nn1)Nc1ccc(F)cc1 [Compound 11c, 2-(4-((4-((2-(3,5-dihydroxybenzoyl)hydrazono)methyl)phenoxy)methyl)-1H-1,2,3-triazol-1-yl)-N-(4-fluorophenyl)acetamide] | 32.28 ± 2.76 | – |
| O=C(Cn1cc(COc2ccc(C=NNC(=O)c3cc(O)cc(O)c3)cc2)nn1)Nc1ccc(Cl)cc1 [Compound 11d, N-(4-chlorophenyl)-2-(4-((4-((2-(3,5-dihydroxybenzoyl)hydrazineylidene)methyl)phenoxy)methyl)-1H-1,2,3-triazol-1-yl)Acetamide] | 22.82 ± 0.53 | – |
| O=C(Cn1cc(COc2ccc(C=NNC(=O)c3cc(O)cc(O)c3)cc2)nn1)Nc1ccc(Br)cc1 [Compound 11e, N-(4-bromophenyl)-2-(4-((4-((2-(3,5-dihydroxybenzoyl)hydrazono)methyl)phenoxy)methyl)-1H-1,2,3-triazol-1-yl)acetamide] | 14.13 ± 2.31 | – |
| O=C(Cn1cc(COc2ccc(C=NNC(=O)c3cc(O)cc(O)c3)cc2)nn1)Nc1ccc(Cl)cc1Cl [Compound 11f, N-(2,4-dichlorophenyl)-2-(4-((4-((2-(3,5-dihydroxybenzoyl)hydrazineylidene)methyl)phenoxy)methyl)-1H-1,2,3-triazol-1-yl)acetamide] | 19.54 ± 2.48 | – |
| O=C(Cn1cc(COc2ccc(C=NNC(=O)c3cc(O)cc(O)c3)cc2)nn1)Nc1c(Cl)cccc1Cl [Compound 11g, N-(2,6-dichlorophenyl)-2-(4-((4-((2-(3,5-dihydroxybenzoyl)hydrazineylidene)methyl)phenoxy)methyl)-1H-1,2,3-triazol-1-yl)Acetamide] | 27.87 ± 1.83 | – |
| O=C(Cn1cc(COc2ccc(C=NNC(=O)c3cc(O)cc(O)c3)cc2)nn1)Nc1ccc([N+](=O)[O-])cc1 [Compound 11h, 2-(4-((4-((2-(3,5-dihydroxybenzoyl)hydrazineylidene)methyl)phenoxy)methyl)-1H-1,2,3-triazol-1-yl)-N-(4-nitrophenyl)Acetamide] | 22.74 ± 2.86 | – |
| Cc1cc([N+](=O)[O-])ccc1NC(=O)Cn1cc(COc2ccc(C=NNC(=O)c3cc(O)cc(O)c3)cc2)nn1 [Compound 11i, 2-(4-((4-((2-(3,5-dihydroxybenzoyl)hydrazineylidene)methyl)phenoxy)methyl)-1H-1,2,3-triazol-1-yl)-N-(2-methyl-4-nitrophenyl)acetamide] | 15.05 ± 2.29 | – |
| Cc1ccc(NC(=O)Cn2cc(COc3ccc(C=NNC(=O)c4cc(O)cc(O)c4)cc3)nn2)cc1 [Compound 11j, 2-(4-((4-((2-(3,5-dihydroxybenzoyl)hydrazono)methyl)phenoxy)methyl)-1H-1,2,3-triazol-1-yl)-N-(p-tolyl)acetamide] | 15.22 ± 4.33 | – |
| Cc1cccc(C)c1NC(=O)Cn1cc(COc2ccc(C=NNC(=O)c3cc(O)cc(O)c3)cc2)nn1 [Compound 11k, 2-(4-((4-((2-(3,5-dihydroxybenzoyl)hydrazineylidene)methyl)phenoxy)methyl)-1H-1,2,3-triazol-1-yl)-N-(2,6-dimethylphenyl)Acetamide] | 38.59 ± 0.74 | – |
| CCc1ccc(NC(=O)Cn2cc(COc3ccc(C=NNC(=O)c4cc(O)cc(O)c4)cc3)nn2)cc1 [Compound 11l, 2-(4-((4-((2-(3,5-dihydroxybenzoyl)hydrazineylidene)methyl)phenoxy)methyl)-1H-1,2,3-triazol-1-yl)-N-(4-ethylphenyl)acetamide] | 55.52 ± 4.63 | IC50 (tyrosinase [1]): 87.5 µM |
| COc1ccc(NC(=O)Cn2cc(COc3ccc(C=NNC(=O)c4cc(O)cc(O)c4)cc3)nn2)cc1 [Compound 11m, 2-(4-((4-((2-(3,5-dihydroxybenzoyl)hydrazineylidene)methyl)phenoxy)methyl)-1H-1,2,3-triazol-1-yl)-N-(4-methoxyphenyl)acetamide] | 78.81 ± 7.35 | IC50 (tyrosinase [1]): 55.4 µM; mode of inhibition (tyrosinase [2]; Lineweaver–Burk plot): competitive; Ki (tyrosinase [2]; secondary plot of Km vs inhibitor concentration, L-DOPA, read-out: dissociation constant Ki): 52.8 µM |
| O=C(Cn1cc(COc2ccc(C=NNC(=O)c3cc(O)cc(O)c3)cc2)nn1)NCc1ccccc1 [Compound 11n, N-benzyl-2-(4-((4-((2-(3,5-dihydroxybenzoyl)hydrazineylidene)methyl)phenoxy)methyl)-1H-1,2,3-triazol-1-yl)acetamide] | 17.48 ± 1.79 | – |
| CCOc1cc(/C=N/NC(=O)c2ccc(O)c(OC)c2)ccc1O [Compound C] | – | IC50 (mushroom tyrosinase): 1.58 µM |
| O=C(N/N=C/c1ccc(Cl)cc1)c1ccc(O)cc1 [Compound E] | – | IC50 (mushroom tyrosinase): 7.57 ± 0.01 µM |
| Clc1ccc(Cn2cc(COc3ccc(-c4nc5ccccc5[nH]4)cc3)nn2)cc1Cl [Compound F] | – | IC50 (mushroom tyrosinase): 9.42 µM |
| O=C1NC(=O)C(=Cc2ccc(OCc3cn(Cc4ccccc4Cl)nn3)cc2)C(=O)N1 [Compound G] | – | IC50 (mushroom tyrosinase): 29.9 µM |
| NC(=S)N/N=C/c1ccc(OCc2cn(CC(=O)NCc3ccccc3)nn2)cc1 [Compound H] | – | melanin content (skin melanoma cells): 39.8%; IC50 (mushroom tyrosinase; L-DOPA as substrate): 0.17 µM; IC50 (mushroom tyrosinase; L-tyrosine as substrate): 0.11 µM |
| CC(=O)c1cccc(NC(=O)COC(=O)/C=C/c2ccc(O)cc2O)c1 [D] | – | IC50 (mushroom tyrosinase): 0.002 µM |
| O=c1cc(CO)occ1O [Kojic acid, reference compound] | 23.64 ± 2.56 | – |
